Assay results reported in ChEMBL document CHEMBL1201862, “PubChem BioAssay data set” (2004).
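A five-concentration, 48-hour dose response in 96-well plates underlies each endpoint, interpolated linearly between surrounding concentrations. Abbreviation: GI50, concentration required for 50% inhibition of growth.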 Active and inactive are the calls of the source. Cut-off read from the data, not from the text of the source: active = GI50 up to about 1.1 µM and inactive = higher.

Legend:
Assay in all cases: NCI-60 cell line screen, 48 h
786-0 = system: 786-0
A498 = system: A498
BT-549 = system: BT-549
COLO 205 = system: COLO 205
HCC 2998 = system: HCC 2998
HOP-62 = system: HOP-62
Hs-578T = system: Hs-578T
LOX IMVI = system: LOX IMVI
NCI-H460 = system: NCI-H460
OVCAR-8 = system: OVCAR-8
RPMI-8226 = system: RPMI-8226
RXF 393 = system: RXF 393
SK-OV-3 = system: SK-OV-3
SW-620 = system: SW-620
TK-10 = system: TK-10
U-251 = system: U-251
UACC-257 = system: UACC-257
UACC-62 = system: UACC-62
DU-145 = system: DU-145
OVCAR-3 = system: OVCAR-3

Measured: GI50

Cc1ccc(-c2c(C#N)c(-c3ccccc3)c(C#N)c(=O)n2NS(=O)(=O)c2ccc(C)cc2)cc1
inactive: 786-0 44.6 µM | A498 27.4 µM | BT-549 70.1 µM | COLO 205 95.9 µM | HCC 2998 19.9 µM | HOP-62 50.4 µM | Hs-578T > 100 µM | LOX IMVI 19.8 µM | NCI-H460 15.7 µM | OVCAR-8 52.7 µM | RPMI-8226 2.75 µM | RXF 393 62.2 µM | SK-OV-3 79.8 µM | SW-620 14.8 µM | TK-10 40.7 µM | U-251 45.2 µM | UACC-257 56.1 µM | UACC-62 23.3 µM

O=[N+]([O-])c1cccc(-c2ncc3c(n2)-c2ccccc2C3)c1
inactive: 786-0 22.9 µM | BT-549 > 100 µM | COLO 205 > 100 µM | DU-145 > 100 µM | Hs-578T 32.9 µM | NCI-H460 > 100 µM | OVCAR-8 > 100 µM | RPMI-8226 > 100 µM | RXF 393 95.1 µM | SK-OV-3 > 100 µM | SW-620 > 100 µM | TK-10 47.1 µM | U-251 93.8 µM | UACC-257 > 100 µM | UACC-62 > 100 µM

CC(C)(CO)N1CCN(C(S)=Nc2ccccc2)CC1
inactive: 786-0 > 100 µM | A498 > 100 µM | BT-549 > 100 µM | COLO 205 > 100 µM | HOP-62 > 100 µM | Hs-578T > 100 µM | LOX IMVI > 100 µM | NCI-H460 > 100 µM | OVCAR-3 > 100 µM | OVCAR-8 > 100 µM | RPMI-8226 > 100 µM | RXF 393 > 100 µM | SK-OV-3 > 100 µM | SW-620 > 100 µM | TK-10 > 100 µM | U-251 > 100 µM | UACC-257 > 100 µM | UACC-62 > 100 µM

Cc1cc(C)nc(NS(=O)(=O)c2ccc(NNc3c4ccccc4nc4c(C(=O)Nc5ccc(S(=O)(=O)Nc6cc(C)on6)cc5)cccc34)cc2)n1
inactive: 786-0 51.6 µM | BT-549 72.1 µM | COLO 205 36.4 µM | DU-145 49.2 µM | HCC 2998 23.2 µM | HOP-62 82 µM | Hs-578T 51.4 µM | LOX IMVI 32.3 µM | NCI-H460 40.9 µM | OVCAR-3 20.4 µM | OVCAR-8 35.6 µM | RPMI-8226 42.9 µM | RXF 393 44.1 µM | SK-OV-3 29 µM | SW-620 39.5 µM | TK-10 54.1 µM | U-251 26.7 µM | UACC-257 73.6 µM | UACC-62 46.3 µM
